{
  "source": "paper PMC4383039",
  "about": "(Science translational medicine, 2015)",
  "key": {"mycolates": {"test_system": "mycolates", "assay_type": "cell-based, Mycobacterium tuberculosis"}, "[1]": {"target": "apo-InhA, InhA-NAD+ complex (Mycobacterium tuberculosis, UniProt P9WGR1)", "sequence (P9WGR1 whole entry, looked up, one chain of several)": "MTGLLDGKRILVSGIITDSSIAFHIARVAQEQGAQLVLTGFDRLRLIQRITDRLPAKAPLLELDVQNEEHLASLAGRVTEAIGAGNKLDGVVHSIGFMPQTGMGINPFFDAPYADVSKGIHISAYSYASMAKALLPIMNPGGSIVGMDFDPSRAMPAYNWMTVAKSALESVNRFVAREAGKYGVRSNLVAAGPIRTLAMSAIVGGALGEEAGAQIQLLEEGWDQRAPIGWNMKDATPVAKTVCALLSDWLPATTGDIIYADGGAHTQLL", "assay_type": "binding"}, "InhA-NADH complex": {"target": "InhA-NADH complex (Mycobacterium tuberculosis, UniProt P9WGR1)", "sequence (P9WGR1 whole entry, looked up, one chain of several)": "as above", "assay": "biochemical", "assay_type": "binding"}, "Mtb H37Rv [2]": {"test_system": "Mtb H37Rv", "assay": "microbe, parasite or virus in culture", "assay_type": "cell-based, Mycobacterium tuberculosis", "settings": "for MIC50: Mycobacterium tuberculosis, H37RV"}, "InhA [3]": {"target": "T1, InhA (Mycobacterium tuberculosis, UniProt P9WGR1)", "T1 sequence (P9WGR1 whole entry, looked up)": "as the sequence (P9WGR1 whole entry, looked up, one chain of several) above", "assay": "biochemical"}, "[4]": {"target": "InhA with cofactor (NADH or NAD+) (Mycobacterium tuberculosis, UniProt P9WGR1)", "sequence (P9WGR1 whole entry, looked up)": "as the sequence (P9WGR1 whole entry, looked up, one chain of several) above", "assay_type": "binding"}, "Mtb H37Rv [5]": {"test_system": "Mtb H37Rv", "settings": "cited from earlier work"}, "InhA [6]": {"target": "T1, InhA", "settings": "read-out: InhA IC50; cited from earlier work"}, "in vitro replicating Mtb": {"test_system": "in vitro replicating Mtb", "assay_type": "cell-based, Mycobacterium tuberculosis"}, "Mtb H37Rv [7]": {"test_system": "Mtb H37Rv", "parameters": "species or system BALB/c mice", "settings": "mouse, in vivo"}},
  "note": "Where two headings read alike, the source gives them in different places. Marks after values point to notes of the source that are not given here.",
  "data": [
    {"compound": "CC(C)Cc1cc(O)c(-c2ccccc2)c(=O)[nH]1", "note": "[NITD-529, 4-hydroxy-6-isobutyl-3-phenylpyridin-2(1H)-one]", "values": [
      {"measurement": "effect on mycolates", "setting": "mycolates", "result": "dose-dependent inhibition of mycolates"},
      {"measurement": "ITC binding to InhA", "setting": "[1]", "result": "no binding was observed"},
      {"measurement": "ITC (+NADH) N", "setting": "InhA-NADH complex", "result": "0.97 ± 0.23"},
      {"measurement": "Kd", "setting": "InhA-NADH complex", "result": "25 ± 7", "unit": "µM"},
      {"measurement": "ITC (+NADH) ΔH", "setting": "InhA-NADH complex; 25°C", "result": "13.1 ± 4.202", "unit": "kcal/mol"},
      {"measurement": "ITC (+NADH) ΔS", "setting": "InhA-NADH complex; 25°C", "result": -0.0229, "unit": "kcal/mol"},
      {"measurement": "Mtb MIC50", "setting": "Mtb H37Rv [2]", "result": 1.54, "unit": "µM"},
      {"measurement": "MIC50", "setting": "Mtb H37Rv [2]; 120 h, read-out: Mtb MIC50", "result": 1.5, "unit": "µM"},
      {"measurement": "MIC50", "setting": "Mtb H37Rv [2]; read-out: Compound MIC50", "result": 1.54, "unit": "µM"},
      {"measurement": "IC50", "setting": "InhA [3]", "result": "9.6 ± 0.7", "unit": "µM"},
      {"measurement": "Thermaflor assay Tm, E-NAD+-I", "setting": "[4]", "result": 50.3, "unit": "°C"},
      {"measurement": "Thermaflor assay Tm, E-NADH-I", "setting": "[4]", "result": 54.7, "unit": "°C"},
      {"measurement": "Thermaflor assay ΔTm", "setting": "[4]", "result": 4.4, "unit": "°C"}
    ]},
    {"compound": "O=[N+]([O-])c1cn2c(n1)OC[C@@H](OCc1ccc(OC(F)(F)F)cc1)C2", "note": "[PA-824]", "values": [
      {"measurement": "MIC50", "setting": "Mtb H37Rv [5]", "result": 0.4, "unit": "µM"}
    ]},
    {"compound": "c1ccc(Oc2ccccc2)cc1", "note": "[PT70]", "values": [
      {"measurement": "IC50", "setting": "InhA [6]", "result": "< 0.05", "unit": "µM"},
      {"measurement": "Mtb MIC50", "setting": "Mtb H37Rv [5]", "result": "11 ^a μM"},
      {"measurement": "Thermaflor assay Tm, E-NAD+-I", "setting": "[4]", "result": 66.7, "unit": "°C"},
      {"measurement": "Thermaflor assay Tm, E-NADH-I", "setting": "[4]", "result": 60.1, "unit": "°C"},
      {"measurement": "Thermaflor assay ΔTm", "setting": "[4]", "result": -6.6, "unit": "°C"}
    ]},
    {"compound": "COc1nc2ccc(Br)cc2cc1[C@@H](c1ccccc1)[C@@](O)(CCN(C)C)c1cccc2ccccc12", "note": "[bedaquiline]", "values": [
      {"measurement": "MIC50", "setting": "Mtb H37Rv [5]", "result": 0.05, "unit": "µM"}
    ]},
    {"compound": "CCc1cc(C(N)=S)ccn1", "note": "[ethionamide]", "values": [
      {"measurement": "MIC50", "setting": "Mtb H37Rv [2]; read-out: Compound MIC50", "result": 1.66, "unit": "µM"}
    ]},
    {"compound": "NNC(=O)c1ccncc1", "note": "[isoniazid]", "values": [
      {"measurement": "MIC50", "setting": "Mtb H37Rv [2]; read-out: Compound MIC50", "result": 0.25, "unit": "µM"},
      {"measurement": "MIC50", "setting": "Mtb H37Rv [5]", "result": 0.33, "unit": "µM"},
      {"measurement": "concentration showing rapid killing (in vitro cidal-activity profile)", "setting": "in vitro replicating Mtb", "result": 0.5, "unit": "µM"},
      {"measurement": "efficacy compared with reference drugs / NITD-916", "setting": "Mtb H37Rv [7]", "result": "significantly more potent than NITD-916"}
    ]},
    {"compound": "CO[C@H]1/C=C/O[C@@]2(C)Oc3c(C)c(O)c4c(O)c(c(/C=N/N5CCN(C)CC5)c(O)c4c3C2=O)NC(=O)/C(C)=C\\C=C\\[C@H](C)[C@H](O)[C@@H](C)[C@@H](O)[C@@H](C)[C@H](OC(C)=O)[C@@H]1C", "note": "[rifampicin]", "values": [
      {"measurement": "efficacy compared with reference drugs / NITD-916", "setting": "Mtb H37Rv [7]", "result": "significantly more potent than NITD-916"}
    ]},
    {"compound": "[H]/N=C(/N)N[C@H]1[C@H](O)[C@@H](O)[C@H](O[C@@H]2O[C@@H](C)[C@](O)(C=O)[C@H]2O[C@@H]2O[C@@H](CO)[C@H](O)[C@@H](O)[C@@H]2NC)[C@@H](N/C(N)=N\\[H])[C@@H]1O", "note": "[streptomycin]", "values": [
      {"measurement": "MIC50", "setting": "Mtb H37Rv [2]; read-out: Compound MIC50", "result": 0.08, "unit": "µM"}
    ]}
  ]
}
